Measurements reported in US12070472B2, “Treatment of drug resistant proliferative diseases with telomerase mediated telomere altering compounds” (The Board of Regents of the University of Texas System, priority 2016, dated 2024).

Experiments:
[1] = system: H1993 cells; test: Sensitization by 5-azacytidine pretreatment, H1993; assay type: cell-based, human; conditions: 500 nM 5-azacytidine for one week
Experimental: (§1) All three resistant cell lines were pre-treated with 500 nM of the demethylating agent 5-azacytidine for one week. Following the 5-azacytidine pretreatment, each resistant cell line was treated with 9 different concentrations (0.01 to 1000 micromolar) of 6-thio-dG for one week. Cells were then evaluation for growth/death.

[2] = system: H1693; test: Sensitization by 5-azacytidine pretreatment, H1693; assay type: cell-based, human; conditions: 500 nM 5-azacytidine for one week
Experimental: as §1

[3] = system: H1819; test: Sensitization by 5-azacytidine pretreatment, H1819; assay type: cell-based, human; conditions: 500 nM 5-azacytidine for one week
Experimental: as §1

[4] = system: BJ-hTERT cells; test: Telomere dysfunction induced foci (TIF) assay in BJ-hTERT cells; assay type: cell-based, human; conditions: 10 μM, after 48 hours
Experimental: (§2) TIFs were quantified using Imaris software.
(§3) Normal BJ cells and […] BJ-hTERT cells were seeded in chamber slides. Following cell attachment, 6-thio-dG (10 μM) and 6-thio-G (10 μM) were added to fresh medium of each cell type. […] A control was used for each cell type as well, where DMSO was added to fresh medium of each cell type. […] These include almost all human cancer cells and certain human diseases involving acute and chronic inflammation.

[5] = system: BJ cells; test: Telomere dysfunction induced foci (TIF) assay in normal BJ cells; assay type: cell-based, human; conditions: 10 μM, after 48 hours
Experimental: as §2, §3

[6] = system: BJ; test: GI 50 determination, BJ; assay type: cell-based; conditions: Homo sapiens; BJ normal cell line
Experimental: (§4) Cells of each type listed in Table 2 were seeded in chamber slides.

[7] = system: HCT116; test: GI 50 determination, HCT116; assay type: cell-based; conditions: Homo sapiens, HCT-116
Experimental: as §4

[8] = system: A549; test: GI 50 determination, A549; assay type: cell-based; conditions: Homo sapiens
Experimental: as §4

[9] = system: H2882; test: GI 50 determination, H2882; assay type: cell-based; conditions: Homo sapiens, NCI-H2882
Experimental: as §4

[10] = system: HCC2429; test: GI 50 determination, HCC2429; assay type: cell-based; conditions: Homo sapiens
Experimental: as §4

[11] = system: HCC827; test: GI 50 determination, HCC827; assay type: cell-based; conditions: Homo sapiens
Experimental: as §4

[12] = system: HCC15; test: GI 50 determination, HCC15; assay type: cell-based; conditions: Homo sapiens
Experimental: as §4

[13] = system: H2087; test: GI 50 determination, H2087; assay type: cell-based; conditions: Homo sapiens, NCI-H2087
Experimental: as §4

[14] = system: HCC4017; test: GI 50 determination, HCC4017; assay type: cell-based; conditions: Homo sapiens
Experimental: as §4

[15] = system: HCC515; test: GI 50 determination, HCC515; assay type: cell-based; conditions: Homo sapiens
Experimental: as §4

[16] = system: H2009; test: GI 50 determination, H2009; assay type: cell-based; conditions: Homo sapiens, NCI-H2009
Experimental: as §4

[17] = system: HCT116 cells; conditions: 1 μM or 10 μM every 3 days, after 10 weeks
Experimental: (§5) For long-term cellular experiments, HCT116 (1,000 cells/cm^2) and BJ (10,000 cells/cm^2) cells were fed with 6-thio-dG (1, 3, 10 μM) containing medium every three days. The cells were counted and replated every week for 10-16 weeks. Additionally, HCT116 cells (1,000 cells/cm^2) were fed with 6-thio-G (1, 3, 10 μM) every three days and each week cells were counted, collected for TRF (Telomere Restriction Fragment) analysis and replated. HCT116 cells, following treatment with 10 μM 6-thio-dG for 12 weeks, were then treated with a combination of 10 μM 6-thio-dG and 3 μM GRN163L for 2-4 weeks.

[18] = system: BJ fibroblast cells; test: Telomere length assay (TRF), BJ fibroblasts long-term culture; assay type: cell-based, human; conditions: 10 weeks, compared to untreated control
Experimental: as §5

[19] = molecular target: T1, telomerase (Homo sapiens, UniProt O14746); test: Telomerase activity by TRAP assay in treated HCT116 cells; assay type: cell-based; conditions: HCT116 cells treated with 1 and 10 μM every 3 days for 12 weeks
T1 construct: endogenous in cells; host or cells: HCT116 human colon cancer cells (lysate)
Experimental: Telomerase activity was measured by the TRAP assay (Telomeric Repeat Amplification Protocol as described in Shay J. W. and Bacchetti S., “A survey of telomerase activity in human cancer,” European Journal of Cancer 1997; 33:787-91.). Briefly, HCT116 cells were treated with 1 or 10 μM 6-thio-dG for 1-12 weeks. 1×10^5 cells were collected and lysed with ice-cold NP-40 lysis buffer (10 mM Tris-HCl pH 8.0, 1.0 mM MgCl2, 1 mM EDTA, 1% NP-40, 0.25 mM sodium deoxycholate, 10% glycerol, 150 mM NaCl, 5 mM β-mercaptoethanol) for 30 min. One microliter cellular lysate for 2500 cells was used for each reaction. Hela cells were used as a positive control and lysis buffer was used as a negative control. Samples were prepared and then the telomerase extension products were amplified using PCR (95° C. for 5 min to inactivate telomerase, then 95° C. for 30 sec, 52° C. for 30 sec, 72° C. for 30 sec; 24 cycles). Samples were run on a 10% non-denaturating acrylamide gel and visualized using a Typhoon PhosphorImager scanner system (Molecular Dynamics, GE Healthcare, Piscataway, NJ) that is capable of reading Cy5 fluorescence.

[20] = system: A549 human lung cancer cells; test: Tumor growth in xenograft animal model with A549 cells; assay type: in vivo, mice; conditions: 2.5 mg/kg every day
Experimental: Doses of 2.5 mg/kg of 6-thio-dG and 2.5 mg/kg of 6-thio-G were injected every day into mice after tumor implantation and providing time for tumor initiation. DMSO injections were used for the control. The volume of the tumor was measured.

[21] = Experimental: Six WT mice were treated with 1.67 mg of 6-thio-dG/kg of body weight daily. Six WT mice were treated with 1.67 mg of 6-thio-G/kg of body weight daily. Six WT mice were treated with 5 mg of 6-thio-dG/kg of body weight daily. Six WT mice were treated with 5 mg of 6-thio-G/kg of body weight daily. The mice were given the appropriate dosage and weighed daily for 25 days.

T1 sequence (O14746 whole entry): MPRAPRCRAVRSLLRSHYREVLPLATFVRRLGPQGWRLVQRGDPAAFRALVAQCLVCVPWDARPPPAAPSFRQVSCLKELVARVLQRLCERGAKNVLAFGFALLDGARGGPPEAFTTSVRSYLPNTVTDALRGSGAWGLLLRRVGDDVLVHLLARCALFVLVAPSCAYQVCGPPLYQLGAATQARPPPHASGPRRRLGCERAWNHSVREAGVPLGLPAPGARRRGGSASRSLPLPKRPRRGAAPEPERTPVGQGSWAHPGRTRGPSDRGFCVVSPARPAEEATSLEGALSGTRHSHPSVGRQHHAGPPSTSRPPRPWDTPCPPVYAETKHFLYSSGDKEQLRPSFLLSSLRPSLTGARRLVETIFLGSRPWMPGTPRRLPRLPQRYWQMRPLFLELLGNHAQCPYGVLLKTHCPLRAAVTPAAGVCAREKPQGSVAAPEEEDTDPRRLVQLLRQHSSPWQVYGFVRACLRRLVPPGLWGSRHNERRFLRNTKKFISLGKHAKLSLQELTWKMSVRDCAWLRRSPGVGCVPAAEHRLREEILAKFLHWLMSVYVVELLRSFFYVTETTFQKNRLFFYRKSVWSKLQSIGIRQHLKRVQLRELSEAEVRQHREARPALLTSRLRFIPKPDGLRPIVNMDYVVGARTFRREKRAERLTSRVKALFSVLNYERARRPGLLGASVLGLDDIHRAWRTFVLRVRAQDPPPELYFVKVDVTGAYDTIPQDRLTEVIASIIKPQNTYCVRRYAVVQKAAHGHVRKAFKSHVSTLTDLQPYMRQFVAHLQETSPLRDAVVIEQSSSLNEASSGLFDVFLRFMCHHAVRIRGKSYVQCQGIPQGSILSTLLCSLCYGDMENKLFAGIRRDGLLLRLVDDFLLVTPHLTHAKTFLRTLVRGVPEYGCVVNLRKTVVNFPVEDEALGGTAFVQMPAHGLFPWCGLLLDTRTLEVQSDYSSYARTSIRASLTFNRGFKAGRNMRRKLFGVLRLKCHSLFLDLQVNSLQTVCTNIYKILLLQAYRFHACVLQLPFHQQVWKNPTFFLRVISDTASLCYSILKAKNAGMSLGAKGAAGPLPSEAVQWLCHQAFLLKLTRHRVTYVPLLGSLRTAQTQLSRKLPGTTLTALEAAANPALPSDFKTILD
T1 sequence (O60832 whole entry partner): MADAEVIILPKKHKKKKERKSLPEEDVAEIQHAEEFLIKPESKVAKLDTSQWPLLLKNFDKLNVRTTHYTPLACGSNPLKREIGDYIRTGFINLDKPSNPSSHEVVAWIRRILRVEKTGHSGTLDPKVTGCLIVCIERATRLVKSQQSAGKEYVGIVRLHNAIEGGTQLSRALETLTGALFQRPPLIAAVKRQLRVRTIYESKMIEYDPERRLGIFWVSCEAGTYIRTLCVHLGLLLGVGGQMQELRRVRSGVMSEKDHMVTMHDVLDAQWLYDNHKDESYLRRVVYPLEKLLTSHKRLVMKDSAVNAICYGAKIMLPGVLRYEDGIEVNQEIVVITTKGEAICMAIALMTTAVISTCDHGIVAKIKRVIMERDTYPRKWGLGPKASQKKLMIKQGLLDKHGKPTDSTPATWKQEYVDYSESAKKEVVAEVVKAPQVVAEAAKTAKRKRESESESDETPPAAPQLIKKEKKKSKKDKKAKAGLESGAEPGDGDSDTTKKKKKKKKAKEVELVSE
T1 sequence (Q9NY12 whole entry partner): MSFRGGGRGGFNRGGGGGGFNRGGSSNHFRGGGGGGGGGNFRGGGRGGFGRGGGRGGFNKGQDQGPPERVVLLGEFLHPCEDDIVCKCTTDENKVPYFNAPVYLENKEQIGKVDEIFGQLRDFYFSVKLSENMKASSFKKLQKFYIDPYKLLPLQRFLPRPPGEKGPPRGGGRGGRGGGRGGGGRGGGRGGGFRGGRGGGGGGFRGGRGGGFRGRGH
T1 sequence (Q9NX24 whole entry partner): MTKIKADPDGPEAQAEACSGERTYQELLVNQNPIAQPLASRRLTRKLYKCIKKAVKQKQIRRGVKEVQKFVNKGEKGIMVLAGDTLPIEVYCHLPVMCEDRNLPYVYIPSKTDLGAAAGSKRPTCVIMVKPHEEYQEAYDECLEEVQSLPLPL
T1 sequence (Q9NPE3 whole entry partner): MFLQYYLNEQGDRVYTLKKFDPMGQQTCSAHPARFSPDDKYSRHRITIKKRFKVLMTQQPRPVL
T1 sequence (Q9BUR4 whole entry partner): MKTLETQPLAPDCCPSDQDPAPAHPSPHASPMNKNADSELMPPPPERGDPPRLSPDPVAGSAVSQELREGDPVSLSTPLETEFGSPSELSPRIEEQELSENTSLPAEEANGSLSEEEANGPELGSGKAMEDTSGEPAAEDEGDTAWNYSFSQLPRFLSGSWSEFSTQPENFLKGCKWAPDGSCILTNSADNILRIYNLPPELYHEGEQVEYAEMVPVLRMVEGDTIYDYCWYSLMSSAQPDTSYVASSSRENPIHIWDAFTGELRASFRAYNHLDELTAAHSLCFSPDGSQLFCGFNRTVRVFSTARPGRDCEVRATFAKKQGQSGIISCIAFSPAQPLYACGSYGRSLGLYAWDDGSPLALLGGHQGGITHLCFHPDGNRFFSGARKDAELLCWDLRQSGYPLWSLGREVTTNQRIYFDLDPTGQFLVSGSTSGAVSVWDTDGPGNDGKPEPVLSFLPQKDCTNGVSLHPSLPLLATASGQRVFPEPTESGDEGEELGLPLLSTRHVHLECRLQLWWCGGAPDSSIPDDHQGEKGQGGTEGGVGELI

Nc1ncn([C@@H]2O[C@H](CO)[C@@H](O)[C@H]2O)c(=O)n1 [5-azacytidine]
effect of pretreatment on sensitivity to 6-thio-dG [1]: did increase sensitivity of the H1993 cells substantially | effect of pretreatment on sensitivity to 6-thio-dG [2]: no effect on the sensitivity | effect of pretreatment on sensitivity to 6-thio-dG [3]: no effect on the sensitivity

Nc1nc2nc[nH]c2c(=S)[nH]1 [6-thio-G, 6-thioguanine, reference compound]
>4 TIFs per nucleus background subtracted [4]: 0 | >4 TIFs per nucleus background subtracted [5]: 0 | GI50 [6]: > 100000 nM | GI50 [7]: 1200 nM | GI50 [8]: 2300 nM | GI50 [9]: 600 nM | GI50 [10]: 700 nM | GI50 [11]: 1700 nM | GI50 [12]: 1100 nM | GI50 [13]: 900 nM | GI50 [14]: 2000 nM | GI50 [15]: 4900 nM | GI50 [16]: 3300 nM | effect on telomere length (TRF) [17]: did not result in any significant effects on telomere length | telomere shortening (TRF) [18]: did not show enhanced telomere shortening | inhibition of telomerase activity (TRAP) [19]: no inhibition of telomerase activity was observed | histology of residual tumors [20]: mostly “healthy” growing cancerous cells | mortality ([21]; WT mice, 5 mg/kg daily): all mice died by the 15th day | weight loss ([21]; mouse, in vivo, 5 mg/kg): around 2 grams
